Reference: US20100267784A1, “NOVEL 4,5-DIHYDROISOXAZOLES WITH ESTROGENIC ACTIVITY” (priority 2007, published 2010)

Key:
[1] = molecular target: T1, ERα (Homo sapiens, UniProt P03372); assay: ERα reporter (luciferase) transactivation assay in transfected HEK293 cells; format: cell-based; set-up: expressed in transfected cells; host or cells: HEK293; conditions: sample concentration 10 μM, 24 hours, mean of at least three independent transfections
T1 sequence (P03372 1-595): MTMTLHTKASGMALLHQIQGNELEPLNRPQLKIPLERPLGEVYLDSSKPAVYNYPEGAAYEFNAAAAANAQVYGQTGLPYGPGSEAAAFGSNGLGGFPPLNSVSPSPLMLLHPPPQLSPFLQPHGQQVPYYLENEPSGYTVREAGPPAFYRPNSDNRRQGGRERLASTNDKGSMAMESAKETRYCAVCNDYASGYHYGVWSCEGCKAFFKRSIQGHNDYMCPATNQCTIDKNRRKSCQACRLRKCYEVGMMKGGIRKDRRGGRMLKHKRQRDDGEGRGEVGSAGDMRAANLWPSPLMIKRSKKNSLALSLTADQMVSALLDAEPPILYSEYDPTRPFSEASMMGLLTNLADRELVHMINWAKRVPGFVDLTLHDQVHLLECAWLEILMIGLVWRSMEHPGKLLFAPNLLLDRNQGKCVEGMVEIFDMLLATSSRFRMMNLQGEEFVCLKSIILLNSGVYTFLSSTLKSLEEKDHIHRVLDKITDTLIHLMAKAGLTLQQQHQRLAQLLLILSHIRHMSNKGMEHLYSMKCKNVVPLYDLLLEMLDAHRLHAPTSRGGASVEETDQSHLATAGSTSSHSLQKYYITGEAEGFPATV
Experimental: (§1) Determination of the Estrogen Activity of the Compounds: Cell Culture, Transfection and Reporter Assays
(§2) All other reagents were of reagent grade from Sigma or Fluka. One day before transfection, HEK293 cells were seeded in 48-well plates (70×10^3 cells per well) in phenol-free Dulbecco's modified Eagle medium supplemented with 5% delipidated fetal bovine serum (Sigma) and antibiotics. After a medium change, the cells were transfected for 4 hours with 5 ng ERα or ERβ expression vector, 75 ng reporter plasmid pERE2TATA-LUC and 20 ng control plasmid pCMVβ by the calcium phosphate method. After transfection, the cells received fresh medium containing either vehicle (0.1% v/v) or test compound (10 μM). After 24 hours, the cells were washed, lysed and luciferase and β-galactosidase activities were determined from 20 μl of lysates with the Victor^2TM reader (PerkinElmer Wallac, Turku, Finland). […] The data are means ±SEM of at least three independent transfections.

[2] = molecular target: ERβ (Homo sapiens, UniProt Q92731); assay: ERβ reporter (luciferase) transactivation assay in transfected HEK293 cells; format: cell-based; set-up: expressed in transfected cells; host or cells: HEK293; conditions: for ERβ receptor activation relative to 10 nM E2 corresponding 100: sample concentration 10 μM, 24 hours, mean of at least three independent transfections; for activation at 10 µM: HEK293, 24 h, read-out: ERβ receptor activation relative to 10 nM E2 corresponding 100, sample concentration 10 μM, mean of at least three independent transfections
Chain of ERβ (Q92731 whole entry): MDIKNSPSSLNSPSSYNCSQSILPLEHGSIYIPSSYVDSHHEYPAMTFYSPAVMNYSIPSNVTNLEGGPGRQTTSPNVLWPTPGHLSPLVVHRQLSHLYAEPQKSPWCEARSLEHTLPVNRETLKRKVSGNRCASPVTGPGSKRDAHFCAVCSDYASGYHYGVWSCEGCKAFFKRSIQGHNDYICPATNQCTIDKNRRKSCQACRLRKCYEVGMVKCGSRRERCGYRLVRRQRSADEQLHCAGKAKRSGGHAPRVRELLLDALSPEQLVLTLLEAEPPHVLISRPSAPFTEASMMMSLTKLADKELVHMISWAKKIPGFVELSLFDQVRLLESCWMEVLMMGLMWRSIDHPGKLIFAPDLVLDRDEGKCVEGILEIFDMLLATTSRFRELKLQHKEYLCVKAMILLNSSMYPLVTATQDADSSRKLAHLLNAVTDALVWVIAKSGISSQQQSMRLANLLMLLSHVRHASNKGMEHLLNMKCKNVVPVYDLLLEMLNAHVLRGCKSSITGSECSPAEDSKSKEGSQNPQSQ
Experimental: as §1, §2

Row | Structure (SMILES) | ERα receptor activation relative to 10 nM E2 corresponding 100 [1] [%] | ERβ receptor activation relative to 10 nM E2 corresponding 100 [2] [%] | activation at 10 µM [2] [%]
1 | Oc1ccc(CC2CC(CCc3ccccc3O)=NO2)cc1 (single isomer, unassigned) [95b, 5-(4-Hydroxy-benzyl)-3-[2-(2-hydroxy-phenyl)-ethyl]-4,5-dihydro-isoxazole] | 6.2 | 0.6 | 
2 | Oc1ccc(CCC2=NOC(Cc3ccc(O)cc3)C2)cc1 (single isomer, unassigned) [96a, 5-(4-Hydroxy-benzyl)-3-[2-(4-hydroxy-phenyl)-ethyl]-4,5-dihydro-isoxazole] | 76.2 | 12.0 | 
3 | Oc1ccc(CCC2=NOC(Cc3ccc(O)cc3)C2)cc1 (single isomer, unassigned) [96b, 5-(4-Hydroxy-benzyl)-3-[2-(4-hydroxy-phenyl)-ethyl]-4,5-dihydro-isoxazole] | 81.4 | 4.1 | 
4 | Oc1ccccc1CCC1=NOC(Cc2ccc(F)cc2)C1 (single isomer, unassigned) [97a, 5-(4-Fluoro-benzyl)-3-[2-(2-hydroxy-phenyl)-ethyl]-4,5-dihydro-isoxazole] | 82.0 | 3.4 | 
5 | Oc1ccccc1CCC1=NOC(Cc2ccc(F)cc2)C1 (single isomer, unassigned) [97b, 5-(4-Fluoro-benzyl)-3-[2-(2-hydroxy-phenyl)-ethyl]-4,5-dihydro-isoxazole] | 11.1 | −2.4 | 
6 | Oc1ccc(CCC2=NOC(Cc3ccc(F)cc3)C2)cc1 (single isomer, unassigned) [98a, 5-(4-Fluoro-benzyl)-3-[2-(4-hydroxy-phenyl)-ethyl]-4,5-dihydro-isoxazole] | 77.8 | 28.4 | 
7 | Oc1ccc(CCC2=NOC(Cc3ccc(F)cc3)C2)cc1 (single isomer, unassigned) [98b, 5-(4-Fluoro-benzyl)-3-[2-(4-hydroxy-phenyl)-ethyl]-4,5-dihydro-isoxazole] | 5.7 | 4.4 | 
8 | Oc1ccc(CCCC2=NOC(Cc3ccccc3)C2)cc1 (single isomer, unassigned) [99a, 5-Benzyl-3-[3-(4-hydroxy-phenyl)-propyl]-4,5-dihydro-isoxazole] | 153.7 | 78.2 | 
9 | Oc1ccc(CCCC2=NOC(Cc3ccccc3)C2)cc1 (single isomer, unassigned) [99b, 5-Benzyl-3-[3-(4-hydroxy-phenyl)-propyl]-4,5-dihydro-isoxazole] | 75.1 | 19.8 | 
10 | Oc1ccc(CC2CC(CCCc3ccccc3)=NO2)cc1 (single isomer, unassigned) [100a, 5-(4-Hydroxy-benzyl)-3-(3-phenyl-propyl)-4,5-dihydro-isoxazole] | 67.1 | 4.7 | 
11 | Oc1ccc(CC2CC(CCCc3ccccc3)=NO2)cc1 (single isomer, unassigned) [100b, 5-(4-Hydroxy-benzyl)-3-(3-phenyl-propyl)-4,5-dihydro-isoxazole] | 97.2 | 17.0 | 
12 | Oc1ccc(CCCC2=NOC(Cc3ccc(O)cc3)C2)cc1 (single isomer, unassigned) [101a, 5-(4-Hydroxy-benzyl)-3-[3-(4-hydroxy-phenyl)-propyl]-4,5-dihydro-isoxazole] | 14.4 | −0.9 | 
13 | Oc1ccc(CCCC2=NOC(Cc3ccc(O)cc3)C2)cc1 (single isomer, unassigned) [101b, 5-(4-Hydroxy-benzyl)-3-[3-(4-hydroxy-phenyl)-propyl]-4,5-dihydro-isoxazole] | 13.6 | 10.6 | 
14 | Oc1ccc(CC2CC(CCCc3ccc(O)c(O)c3)=NO2)cc1 (single isomer, unassigned) [103a, 3-[3-(3,4-Dihydroxy-phenyl)-propyl]-5-(4-hydroxy-benzyl)-4,5-dihydro-isoxazole] | 1.7 | −1.1 | 
15 | Oc1ccc(CC2CC(CCCc3ccc(O)c(O)c3)=NO2)cc1 (single isomer, unassigned) [103b, 3-[3-(3,4-Dihydroxy-phenyl)-propyl]-5-(4-hydroxy-benzyl)-4,5-dihydro-isoxazole] | 1.4 | −0.7 | 
16 | Oc1ccccc1CCC1=NOC(CCc2ccccc2)C1 (single isomer, unassigned) [104a, 3[2-(2-Hydroxy-phenyl)-ethyl]-5-phenethyl-4,5-dihydro-isoxazole] | 4.5 |  | 4.2
17 | Oc1ccccc1CCC1=NOC(CCc2ccccc2)C1 (single isomer, unassigned) [104b, 3[2-(2-Hydroxy-phenyl)-ethyl]-5-phenethyl-4,5-dihydro-isoxazole] | 21.8 | 2.6 | 
18 | Oc1cccc(CCC2=NOC(CCc3ccccc3)C2)c1 (single isomer, unassigned) [105a, 3-[2-(3-Hydroxy-phenyl)-ethyl]-5-phenethyl-4,5-dihydro-isoxazole] | 8.3 |  | 2.6
19 | Oc1cccc(CCC2=NOC(CCc3ccccc3)C2)c1 (single isomer, unassigned) [105b, 3-[2-(3-Hydroxy-phenyl)-ethyl]-5-phenethyl-4,5-dihydro-isoxazole] | 3.0 | 3.6 | 
20 | Oc1ccc(CCC2=NOC(CCc3ccccc3)C2)cc1 (single isomer, unassigned) [106a, 3-[2-(4-Hydroxy-phenyl)-ethyl]-5-phenethyl-4,5-dihydro-isoxazole] | 62.8 | 15.4 | 
21 | Oc1ccc(CCC2=NOC(CCc3ccccc3)C2)cc1 (single isomer, unassigned) [106b, 3-[2-(4-Hydroxy-phenyl)-ethyl]-5-phenethyl-4,5-dihydro-isoxazole] | 15.8 | 0.8 | 
22 | c1ccc(CC2CC(c3ccccc3)=NO2)cc1 (single isomer, unassigned) [107a, 5-Benzyl-3-phenyl-4,5-dihydroisoxazole] | −1.0 |  | 6.6
23 | c1ccc(CC2CC(c3ccccc3)=NO2)cc1 (single isomer, unassigned) [107b, 5-Benzyl-3-phenyl-4,5-dihydroisoxazole] | 47.2 | 12.8 | 
24 | c1ccc(CCC2=NOC(Cc3ccccc3)C2)cc1 (single isomer, unassigned) [109a, 5-Benzyl-3-phenethyl-4,5-dihydroisoxazole] | 68.4 |  | 1.1
25 | c1ccc(CCC2=NOC(Cc3ccccc3)C2)cc1 (single isomer, unassigned) [109b, 5-Benzyl-3-phenethyl-4,5-dihydroisoxazole] | 38.2 | 1.3 | 
26 | c1ccc(CCC2=NOC(c3ccccc3)C2)cc1 (single isomer, unassigned) [110a, 3-Phenethyl-5-phenyl-4,5-dihydroisoxazole] | 16.4 |  | 9.8
27 | c1ccc(CCC2=NOC(c3ccccc3)C2)cc1 (single isomer, unassigned) [110b, 3-Phenethyl-5-phenyl-4,5-dihydroisoxazole] | 11.2 | 8.1 | 
28 | c1ccc(CCC2CC(c3ccccc3)=NO2)cc1 (single isomer, unassigned) [111a, 5-Phenethyl-3-phenyl-4,5-dihydroisoxazole] | 22.8 | 8.5 | 
